Measurements from PubChem BioAssay (NCI).
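Cultured in 96-well plates, cells were exposed to test compound for 48 hours across five concentrations. GI50 is the concentration that inhibits growth by half. Definition used: TGI = concentration required for complete inhibition of growth.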

How the values were obtained:
Experiment in all cases: NCI tumour cell line growth inhibition, 48 h
HCT-116 colon = test system: HCT-116 colon
KM12 colon = test system: KM12 colon
RXF 393 renal = test system: RXF 393 renal
OVCAR-4 ovarian = test system: OVCAR-4 ovarian
MDA-MB-435 = test system: MDA-MB-435
SK-OV-3 ovarian = test system: SK-OV-3 ovarian
OVCAR-5 ovarian = test system: OVCAR-5 ovarian
MDA-MB-231 breast = test system: MDA-MB-231 breast
OVCAR-3 ovarian = test system: OVCAR-3 ovarian
A549 NSCLC = test system: A549 NSCLC
MALME-3M melanoma = test system: MALME-3M melanoma
NCI/ADR-RES ovarian = test system: NCI/ADR-RES ovarian
CAKI-1 renal = test system: CAKI-1 renal
COLO 205 colon = test system: COLO 205 colon
K-562 leukemia = test system: K-562 leukemia
SK-MEL-5 melanoma = test system: SK-MEL-5 melanoma
HS 578T breast = test system: HS 578T breast
SK-MEL-2 melanoma = test system: SK-MEL-2 melanoma
HT29 colon = test system: HT29 colon
SNB-19 CNS = test system: SNB-19 CNS
ACHN renal = test system: ACHN renal
SR leukemia = test system: SR leukemia
RPMI-8226 leukemia = test system: RPMI-8226 leukemia
HCT-15 colon = test system: HCT-15 colon
HL-60(TB) leukemia = test system: HL-60(TB) leukemia
UACC-62 melanoma = test system: UACC-62 melanoma
M14 melanoma = test system: M14 melanoma
786-0 renal = test system: 786-0 renal
CCRF-CEM leukemia = test system: CCRF-CEM leukemia
UACC-257 melanoma = test system: UACC-257 melanoma
OVCAR-8 ovarian = test system: OVCAR-8 ovarian
EKVX NSCLC = test system: EKVX NSCLC
PC-3 prostate = test system: PC-3 prostate
SF-539 CNS = test system: SF-539 CNS
UO-31 renal = test system: UO-31 renal
MOLT-4 leukemia = test system: MOLT-4 leukemia
NCI-H460 lung = test system: NCI-H460 lung
NCI-H522 lung = test system: NCI-H522 lung
IGROV1 ovarian = test system: IGROV1 ovarian
BT-549 breast = test system: BT-549 breast
A498 renal = test system: A498 renal
U251 CNS = test system: U251 CNS
HCC-2998 colon = test system: HCC-2998 colon
SNB-75 CNS = test system: SNB-75 CNS
SK-MEL-28 melanoma = test system: SK-MEL-28 melanoma
NCI-H226 lung = test system: NCI-H226 lung
SW-620 colon = test system: SW-620 colon
HOP-92 NSCLC = test system: HOP-92 NSCLC
NCI-H23 lung = test system: NCI-H23 lung
SF-268 CNS = test system: SF-268 CNS
SF-295 CNS = test system: SF-295 CNS
MCF7 breast = test system: MCF7 breast
HOP-62 NSCLC = test system: HOP-62 NSCLC
SN12C renal = test system: SN12C renal
TK-10 renal = test system: TK-10 renal
T-47D breast = test system: T-47D breast
DU-145 prostate = test system: DU-145 prostate
LOX IMVI melanoma = test system: LOX IMVI melanoma

## O=S(=O)(Oc1ccc2ccccc2c1-c1c(OS(=O)(=O)C(F)(F)F)ccc2ccccc12)C(F)(F)F
HCT-116 colon
  TGI: > 100 µM
KM12 colon
  TGI: > 100 µM
RXF 393 renal
  TGI: > 100 µM
OVCAR-4 ovarian
  TGI: > 100 µM
MDA-MB-435
  TGI: > 100 µM
SK-OV-3 ovarian
  TGI: > 100 µM
OVCAR-5 ovarian
  TGI: > 100 µM
MDA-MB-231 breast
  TGI: > 100 µM
OVCAR-3 ovarian
  TGI: > 100 µM
A549 NSCLC
  TGI: > 100 µM
MALME-3M melanoma
  TGI: > 100 µM
NCI/ADR-RES ovarian
  TGI: > 100 µM
CAKI-1 renal
  TGI: > 100 µM
COLO 205 colon
  TGI: > 100 µM
K-562 leukemia
  TGI: > 100 µM
SK-MEL-5 melanoma
  TGI: > 100 µM
HS 578T breast
  TGI: > 100 µM
SK-MEL-2 melanoma
  TGI: > 100 µM
HT29 colon
  TGI: > 100 µM
SNB-19 CNS
  TGI: > 100 µM
ACHN renal
  TGI: > 100 µM
SR leukemia
  TGI: > 100 µM
RPMI-8226 leukemia
  TGI: > 100 µM
HCT-15 colon
  TGI: > 100 µM
HL-60(TB) leukemia
  TGI: > 100 µM
UACC-62 melanoma
  TGI: > 100 µM
M14 melanoma
  TGI: > 100 µM
786-0 renal
  TGI: > 100 µM
CCRF-CEM leukemia
  TGI: > 100 µM
UACC-257 melanoma
  TGI: 8.3 µM
OVCAR-8 ovarian
  TGI: > 100 µM
EKVX NSCLC
  TGI: > 100 µM
PC-3 prostate
  TGI: > 100 µM
SF-539 CNS
  TGI: > 100 µM
UO-31 renal
  TGI: > 100 µM
MOLT-4 leukemia
  TGI: > 100 µM
NCI-H460 lung
  TGI: > 100 µM
NCI-H522 lung
  TGI: > 100 µM
IGROV1 ovarian
  TGI: > 100 µM
BT-549 breast
  TGI: > 100 µM
A498 renal
  TGI: > 100 µM
U251 CNS
  TGI: > 100 µM
HCC-2998 colon
  TGI: > 100 µM
SNB-75 CNS
  TGI: > 100 µM
SK-MEL-28 melanoma
  TGI: > 100 µM
NCI-H226 lung
  TGI: > 100 µM
SW-620 colon
  TGI: > 100 µM
HOP-92 NSCLC
  TGI: 34.2 µM
NCI-H23 lung
  TGI: > 100 µM
SF-268 CNS
  TGI: > 100 µM
SF-295 CNS
  TGI: > 100 µM
MCF7 breast
  TGI: > 100 µM
HOP-62 NSCLC
  TGI: > 100 µM

## Cc1cc(N)cc(C)c1-c1c(Br)cc(N)cc1Br
SN12C renal
  GI50: 6.05 µM
  TGI: 73.2 µM
HCT-116 colon
  GI50: 3.68 µM
  TGI: 13.1 µM
KM12 colon
  GI50: 3.75 µM
  TGI: 17.3 µM
RXF 393 renal
  GI50: 2.57 µM
  TGI: 6.91 µM
OVCAR-4 ovarian
  GI50: 5.93 µM
  TGI: > 100 µM
MDA-MB-435
  GI50: 1.78 µM
  TGI: 11.2 µM
SK-OV-3 ovarian
  GI50: 3.62 µM
  TGI: 12.2 µM
OVCAR-5 ovarian
  GI50: 4.84 µM
  TGI: > 100 µM
MDA-MB-231 breast
  GI50: 4.1 µM
  TGI: 26.3 µM
OVCAR-3 ovarian
  GI50: 2.63 µM
  TGI: 6.3 µM
A549 NSCLC
  GI50: 4.71 µM
  TGI: 56.5 µM
MALME-3M melanoma
  GI50: 10.5 µM
  TGI: 54.3 µM
TK-10 renal
  GI50: 5.67 µM
  TGI: 37.7 µM
NCI/ADR-RES ovarian
  GI50: 2.23 µM
  TGI: 5.57 µM
CAKI-1 renal
  GI50: 3.07 µM
  TGI: 31.2 µM
COLO 205 colon
  GI50: 2.39 µM
  TGI: 4.88 µM
SK-MEL-5 melanoma
  GI50: 4.52 µM
  TGI: 16.1 µM
SK-MEL-2 melanoma
  GI50: 4.14 µM
  TGI: 21.1 µM
HT29 colon
  GI50: 2.82 µM
  TGI: 12 µM
SNB-19 CNS
  GI50: 5.3 µM
  TGI: > 100 µM
ACHN renal
  GI50: 10.6 µM
  TGI: 98.4 µM
RPMI-8226 leukemia
  GI50: 3.04 µM
  TGI: 10.4 µM
HCT-15 colon
  GI50: 4.77 µM
  TGI: > 100 µM
UACC-62 melanoma
  GI50: 3.52 µM
  TGI: 24 µM
M14 melanoma
  GI50: 2.65 µM
  TGI: 8.76 µM
786-0 renal
  GI50: 5.53 µM
  TGI: 18.7 µM
T-47D breast
  GI50: 4.11 µM
  TGI: 20.3 µM
UACC-257 melanoma
  GI50: 14.3 µM
  TGI: 51.8 µM
OVCAR-8 ovarian
  GI50: 4.41 µM
  TGI: 28.6 µM
EKVX NSCLC
  GI50: 5.65 µM
  TGI: > 100 µM
PC-3 prostate
  GI50: 4.17 µM
  TGI: 69.1 µM
SF-539 CNS
  GI50: 2.89 µM
  TGI: 11.1 µM
UO-31 renal
  GI50: 9.11 µM
  TGI: 46 µM
NCI-H460 lung
  GI50: 3.31 µM
  TGI: 11.2 µM
NCI-H522 lung
  GI50: 2.19 µM
  TGI: 7.88 µM
IGROV1 ovarian
  GI50: 4.32 µM
  TGI: > 100 µM
BT-549 breast
  GI50: 7.51 µM
  TGI: 30.4 µM
A498 renal
  GI50: 1.82 µM
  TGI: 7.54 µM
U251 CNS
  GI50: 4.54 µM
  TGI: 17.9 µM
HCC-2998 colon
  GI50: 3.42 µM
  TGI: 16.6 µM
SNB-75 CNS
  GI50: 2.29 µM
  TGI: 16.2 µM
SK-MEL-28 melanoma
  GI50: 5.21 µM
  TGI: 33.7 µM
NCI-H226 lung
  GI50: 9.43 µM
  TGI: > 100 µM
SW-620 colon
  GI50: 3.68 µM
  TGI: > 100 µM
HOP-92 NSCLC
  GI50: 2.01 µM
  TGI: 9.32 µM
DU-145 prostate
  GI50: 2.89 µM
  TGI: 9.13 µM
NCI-H23 lung
  GI50: 3.52 µM
  TGI: 19 µM
SF-268 CNS
  GI50: 6.36 µM
  TGI: 68.5 µM
LOX IMVI melanoma
  GI50: 6.14 µM
  TGI: 20.7 µM
SF-295 CNS
  GI50: 2.76 µM
  TGI: 12.1 µM
MCF7 breast
  GI50: 4.54 µM
  TGI: > 100 µM
